One block for each compound: values may come before it. Starred links: 1 amine or outer side, 2 acyl side, 3 side chain; linkers in the order of their positions; H or OH if unused. Residues, ends and D or L forms follow the SMILES beside them. *: point of attachment. pNA = O=[N+]([O-])c1ccc(N*)cc1; Suc = O=C(CCC(=O)[*:2])[*:1]
Legend:
[1] = tested on: Beauveria ester hydrolase; experiment: Substrate specificity of the enzyme preparation (Table 9; lipase and protease substrates); format: biochemical, Beauveria bassiana; details: compound used as substrate
Experimental: A one-mL (final volume) reaction mixture contained ketoprofen choline ester (6 mg), NaPi buffer (200 mM, pH 6.5), and 150 mg of whole cells or pellet, or 300 μL cell crude extract. The reaction was carried out at 30° C. in a shaker with a reciprocal speed of 169 rpm. Routine assays of the enzyme were performed by using p-nitrophenyl ketoprofen as a substrate at 30° C.
(§1) Although the enzyme hydrolyzes the water-soluble choline ester, it appears that the enzyme might be a lipase.

[2] = tested on: Beauveria ester hydrolase; details: at 40 mM acid; partially purified enzyme preparation
[3] = tested on: Beauveria ester hydrolase; experiment: Km from the activity of the preparation at different concentrations of substrate; format: biochemical, Beauveria bassiana; details: partially purified enzyme preparation
[4] = tested on: Beauveria ester hydrolase; experiment: Sensitivity of the enzyme to PMSF; format: biochemical, Beauveria bassiana
Description: as §1

Enzymic activity (n mole substrate hydrolyzed/min/mL enzyme) [1]: 215 n mole substrate hydrolyzed/mi
Compound: CC(=O)Oc1ccc([N+](=O)[O-])cc1 [p-nitrophenyl acetate]

Enzymic activity (n mole substrate hydrolyzed/min/mL enzyme) [1]: 7496 n mole substrate hydrolyzed/mi
Compound: CCCCCCCCCCCCCCCC(=O)Oc1ccc([N+](=O)[O-])cc1 [p-nitrophenyl palmitate]

estimated km [3]: 4.96 mM
Compound: CC(C(=O)OCC[N+](C)(C)C)c1cccc(C(=O)c2ccccc2)c1 (racemic) [ketoprofen choline ester]

Second part, the compound before the results:

Compound: C[C@H](NC(=O)CCC(=O)O)C(=O)N[C@@H](C)C(=O)N1CCC[C@H]1C(=O)N[C@@H](Cc1ccccc1)C(=O)Nc1ccc([N+](=O)[O-])cc1 [N-succinyl-ala-ala-pro-phe-p-nitroaniline] (Suc-AAPF-pNA)
hydrolysis of the substance by the enzyme preparation (in words) [1]: does not hydrolyze

Compound: C[C@@H](C(=O)O)c1cccc(C(=O)c2ccccc2)c1 [acid product, R-ketoprofen]
inhibition of the enzyme by reaction product [2]: approximately 45%

Compound: O=S(=O)(F)Cc1ccccc1 [PMSF, phenylmethylsulfonylfluoride]
sensitivity of the enzyme to the inhibitor (in words) [4]: sensitive

Source: US5457051A, “Enantioselective hydrolysis of ketoprofen esters by beauveria bassiana and enzymes derived therefrom” (Sepracor, Inc., priority 1993, dated 1995)
